Assay results as given in patent US20250018014A1, “METHOD FOR TREATING AND/OR PREVENTING REGNASE-1-RELATED DISEASE” (OSAKA UNIVERSITY, priority 2018, published 2025).
Residues, ends and D or L forms follow the SMILES beside them.

Experiments:
[1] = target: T1, FL_Reg1 (full-length human Regnase-1) phosphorylation by TBK1 (Homo sapiens, UniProt Q5D1E8); assay: Regnase-1 phosphorylation inhibition by compounds (AlphaScreen), TBK1, full-length Regnase-1; type: biochemical; conditions: Table 13; phosphorylation by TBK1; read-out: Phosphorylation inhibition FL_Reg1, 50% inhibition concentration (TBK1)
T1 construct: made in house; host or cells: Expi293 cells
T1 sequence (Q5D1E8 1-599): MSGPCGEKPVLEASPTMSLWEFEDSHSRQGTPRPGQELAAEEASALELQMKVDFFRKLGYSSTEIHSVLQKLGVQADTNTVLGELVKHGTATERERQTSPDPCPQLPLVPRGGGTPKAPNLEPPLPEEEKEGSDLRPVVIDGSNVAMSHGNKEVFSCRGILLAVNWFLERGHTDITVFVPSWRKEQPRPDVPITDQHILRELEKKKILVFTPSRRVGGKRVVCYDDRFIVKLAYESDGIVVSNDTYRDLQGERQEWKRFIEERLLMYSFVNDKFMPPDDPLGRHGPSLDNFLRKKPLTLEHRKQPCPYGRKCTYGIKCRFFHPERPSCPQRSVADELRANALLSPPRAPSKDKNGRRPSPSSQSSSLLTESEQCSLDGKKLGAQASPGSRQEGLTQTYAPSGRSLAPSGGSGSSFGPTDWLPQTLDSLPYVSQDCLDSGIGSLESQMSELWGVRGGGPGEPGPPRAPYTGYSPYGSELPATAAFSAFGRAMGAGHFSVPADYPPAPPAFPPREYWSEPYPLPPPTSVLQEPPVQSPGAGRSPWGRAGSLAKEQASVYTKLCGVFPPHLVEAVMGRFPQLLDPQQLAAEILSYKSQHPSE
Text: (§1) The full-length sequence of human Regnase-1 (UniProt ID: Q5D1E8) was used to prepare a construct having a FLAG tag on the N-terminal side and a recognition sequence for biotin ligase BirA on the C-terminal side (FL_Reg1) as a target protein. The above-mentioned Regnase-1 was expressed in mammalian Expi293 cells, purified with FLAG M2 agarose, and isolated by gel filtration chromatography. When biotinylation was required, methods from nonpatent documents (BMC biotechnology, 2008,8,41; and Protein Science, 1999,8,921-929) were used. […]
(§2) Using Kinase assay buffer III (manufactured by SignalChem) supplemented with 2 mM DTT, 100 μM sodium vanadate, and 2 mM manganese chloride, kinase (IKKβ (manufactured by SignalChem) or TBK1 (manufactured by SignalChem)) and Regnase-1 were reacted in the presence of 10 μM ATP at room temperature for 2 hours to perform a phosphorylation reaction.
(§3) Phosphorylated Regnase-1 was detected by the AlphaScreen system. After each of the above-mentioned phosphorylated Regnase-1 antibodies was added and reacted at room temperature for one hour, anti-FLAG AlphaLISA Acceptor Beads (manufactured by PerkinElmer) and Protein A AlphaScreen Donor Beads (manufactured by PerkinElmer) were added, and EnVision (manufactured by PerkinElmer) was used to measure the excited luminescence. As a result, phosphorylated Regnase-1 produced by the phosphorylation reaction by kinase was specifically detected, and signals were confirmed to be enhanced in a manner dependent on Regnase-1 and kinase concentrations (FIG. 24).
(§4) After mixing 2 nM of the above-mentioned Regnase-1 and the compound, phosphorylated Regnase-1 produced by the phosphorylation reaction was detected by the AlphaScreen system. As the results, the inhibition rate was calculated from the signals obtained when adding the compound at each concentration, by defining the signal obtained with Regnase-1 alone to be 100% inhibition rate, and the signal obtained when the same amount of solvent (DMSO) is added in place of the compound as 0% inhibition rate. The 50% inhibition concentration (μM) was calculated from the obtained dose response curve (Table 11).

[2] = target: T2, binding between IKKβ and full-length Regnase-1 (FL_Reg1) (Homo sapiens, UniProt Q5D1E8); assay: Inhibition of kinase-Regnase-1 binding by the compounds (AlphaScreen), IKKβ; conditions: Table 14; binding between IKKβ and Regnase-1; read-out: Binding inhibition FL_Reg1, 50% inhibition concentration (IKKβ)
T2 construct: made in house; host or cells: Expi293 cells
T2 sequence (Q5D1E8 1-599): T1 sequence (Q5D1E8 1-599)
Experimental: (§5) As a target protein, a construct having a FLAG tag on the N-terminal side and a recognition sequence for biotin ligase BirA on the C-terminal side of the full-length sequence of human Regnase-1 (UniProt ID: Q5D1E8) was prepared (FL_Reg1). The above-mentioned Regnase-1 was expressed in mammalian Expi293 cells, purified with FLAG M2 agarose, and isolated by gel filtration chromatography. When biotinylation was required, methods from nonpatent documents (BMC biotechnology, 2008,8,41; and Protein Science, 1999,8,921-929) were used.
(§6) After mixing 2.5 nM of the above-mentioned Regnase-1 and the compound, 2.5 nM of IKKβ or TBK1 was added and reacted at room temperature for two hours. Then, Anti FLAG AlphaLISA Acceptor Beads (manufactured by PerkinElmer) and Glutathione-coated AlphaScreen Donor Beads (manufactured by PerkinElmer) were added, and excited luminescence was measured using En Vision (manufactured by PerkinElmer). As the results, the inhibition rate from the signals obtained when adding the compound at each concentration were calculated, by defining the signal obtained with Regnase-1 alone to be 100% inhibition rate, and the signal obtained when the same amount of solvent (DMSO) is added in place of the compound as 0% inhibition rate. The 50% inhibition concentration (μM) was calculated from the obtained dose response curve (Table 12).

[3] = target: T3, binding between TBK1 and full-length Regnase-1 (FL_Reg1) (Homo sapiens, UniProt Q5D1E8); assay: Inhibition of kinase-Regnase-1 binding by the compounds (AlphaScreen), TBK1; conditions: Table 13; binding between TBK1 and Regnase-1; read-out: Binding inhibition FL_Reg1, 50% inhibition concentration (TBK1)
T3 construct: made in house; host or cells: Expi293 cells
T3 sequence (Q5D1E8 1-599): T1 sequence (Q5D1E8 1-599)
Experimental: as §5, §6

[4] = target: T4, FL_Reg1 (full-length human Regnase-1) phosphorylation by IKKβ (Homo sapiens, UniProt Q5D1E8); assay: Regnase-1 phosphorylation inhibition by compounds (AlphaScreen), IKKβ, full-length Regnase-1; type: biochemical; conditions: Table 14; phosphorylation by IKKβ; read-out: Phosphorylation inhibition FL_Reg1, 50% inhibition concentration (IKKβ)
T4 construct: made in house; host or cells: Expi293 cells
T4 sequence (Q5D1E8 1-599): T1 sequence (Q5D1E8 1-599)
Text: as §1, §2, §3, §4

[5] = target: T5, ΔCTD_Reg1 (amino acids 1 to 546 of human Regnase-1) phosphorylation by IKKβ (Homo sapiens, UniProt Q5D1E8); assay: Regnase-1 phosphorylation inhibition by compounds (AlphaScreen), IKKβ, CTD-deficient Regnase-1; type: biochemical; conditions: Table 14; phosphorylation by IKKβ; read-out: Phosphorylation inhibition ΔCTD_Reg1, 50% inhibition concentration (IKKβ)
T5 construct: made in house; host or cells: Expi293 cells
T5 sequence (Q5D1E8 1-546): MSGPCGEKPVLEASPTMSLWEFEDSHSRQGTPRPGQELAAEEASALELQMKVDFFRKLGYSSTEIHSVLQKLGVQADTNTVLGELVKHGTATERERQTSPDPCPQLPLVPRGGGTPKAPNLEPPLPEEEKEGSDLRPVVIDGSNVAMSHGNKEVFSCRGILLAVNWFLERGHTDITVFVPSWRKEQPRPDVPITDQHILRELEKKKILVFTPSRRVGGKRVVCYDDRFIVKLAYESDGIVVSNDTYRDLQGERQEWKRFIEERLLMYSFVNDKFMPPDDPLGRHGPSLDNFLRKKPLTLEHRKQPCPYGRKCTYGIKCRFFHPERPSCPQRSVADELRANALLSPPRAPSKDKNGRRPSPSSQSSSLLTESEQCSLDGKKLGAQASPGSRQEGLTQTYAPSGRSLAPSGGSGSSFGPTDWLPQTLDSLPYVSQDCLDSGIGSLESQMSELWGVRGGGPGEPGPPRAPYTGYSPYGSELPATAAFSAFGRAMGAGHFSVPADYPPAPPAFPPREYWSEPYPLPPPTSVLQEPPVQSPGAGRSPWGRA
Experimental: Among the full-length human Regnase-1 sequence, the 1st to 546th amino acid sequence was prepared and made into a construct having a FLAG tag on the N-terminal side and a biotin ligase BirA recognition sequence on the C-terminal side (herein, a Regnase-1 lacking the C-terminal domain of Regnase-1 (amino acids 547 to 599 in the case of SEQ ID NO: 2) is referred to as “ΔCTD_Reg1”. “ΔCTD_Reg1” is different from “Regnase-1ΔCTD”, which is a C-terminal domain deletion variant resulting from a frameshift mutation caused by a 1 bp deletion at codon 517, as prepared in Example 13). In addition, the sequence from amino acids 301 to 599 of the full-length human Regnase-1 sequence was designated as C-terminal Regnase-1, and a construct having a FLAG tag on the N-terminal side and a recognition sequence for biotin ligase BirA on the C-terminal side was prepared (Reg1_301-599). The above-mentioned Regnase-1 was expressed in mammalian Expi293 cells, purified with FLAG M2 agarose, and isolated by gel filtration chromatography. When biotinylation was required, methods of nonpatent documents (BMC biotechnology, 2008,8,41; and Protein Science, 1999,8,921-929) were used.
as §2, §3, §4

Structure (SMILES) | IC50 [1] [µM] | IC50 [2] [µM] | IC50 [3] [µM] | IC50 [4] [µM] | IC50 [5] [µM]
CC[C@H](C)[C@@H]1NC(=O)[C@H](CCCCN)NC(=O)[C@H](Cc2ccc(O)cc2)NC(=O)[C@H](Cc2c[nH]c3ccccc23)NC(=O)[C@H](CO)NC(=O)[C@H](CO)NC(=O)[C@H](Cc2c[nH]cn2)NC(=O)CNC(=O)[C@H](Cc2ccc(O)cc2)NC(=O)[C@H]([C@@H](C)O)NC(=O)[C@@H](C)N(C)C(=O)C[C@@H](C(=O)N2CCCC2)NC(=O)[C@H](Cc2c[nH]c3ccccc23)NC1=O [PP9] (HELM PEPTIDE1{[C[C@H](C(=O)[*:2])N(C)[*:1]].T.Y.G.H.S.S.W.Y.K.I.W.D.[C1CCN([*:1])C1]}$PEPTIDE1,PEPTIDE1,1:R1-13:R3$$$V2.0) | 4.2 | 10.6 | 8.3 | 2.7 | –
C[C@@H]1C(=O)N[C@@H](CCC(=O)O)C(=O)N[C@@H](CC(=O)O)C(=O)N[C@@H]([C@@H](C)O)C(=O)N2CCC[C@H]2C(=O)N[C@@H](CCC(=O)O)C(=O)N[C@@H](CC(=O)O)C(=O)N[C@@H](CC(=O)O)C(=O)N[C@@H](Cc2c[nH]cn2)C(=O)N[C@H](C(=O)N2CCCC2)CC(=O)N1C [PP25] (HELM PEPTIDE1{[C[C@H](C(=O)[*:2])N(C)[*:1]].E.D.T.P.E.D.D.H.D.[C1CCN([*:1])C1]}$PEPTIDE1,PEPTIDE1,1:R1-10:R3$$$V2.0) | 18.9 | > 62.1 | 13.1 | 27 | 47.7
CC[C@H](C)[C@@H]1NC(=O)[C@H](Cc2c[nH]c3ccccc23)NC(=O)[C@H](C)N(C)C(=O)C[C@@H](C(=O)N2CCCC2)NC(=O)[C@H](CCC(=O)O)NC(=O)[C@H](CC(N)=O)NC(=O)[C@H](Cc2c[nH]c3ccccc23)NC(=O)[C@H](Cc2ccccc2)NC(=O)[C@H](CC(=O)O)NC(=O)[C@H](Cc2c[nH]c3ccccc23)NC1=O [PP24] (HELM PEPTIDE1{[meA].W.I.W.D.F.W.N.E.D.[C1CCN([*:1])C1]}$PEPTIDE1,PEPTIDE1,1:R1-10:R3$$$V2.0) | 35.7 | 8.8 | 7.7 | 5.3 | –
